{"source": "patent US20090048110A1", "about": "“Orchid Culturing Method” (priority 2005, published 2009)", "origin": "cited, not measured here", "test_system": "Dendrobium", "settings": "application to the mature pseudobulbs, but not the developing ones"}
{"smiles": "c1ccc(CNc2ncnc3nc[nH]c23)cc1", "note": "[6-BAP, 6-benzylaminopurine]", "values": [{"measurement": "triggering of spiking", "value": "shown to trigger spiking"}]}
